Test results as given in the supplement of paper PMC11451515.

Test system: P12-Ichikawa
Assay: cell viability relative to DMSO control; higher = less cytotoxic
Settings: 48 h
Outline: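 Viability was expressed as a per-plate percentage of DMSO wells, with cell-free wells as background. Leukemia cells (NOMO1 or SEM at 500 cells/well, P12-Ichikawa at 1000 cells/well) were adapted for at least four passages in each medium and seeded in 1536-well plates (5 μl). Library compounds in DMSO were pin-dosed over an 11-point threefold series from 47 μM to 0.79 nM, and CellTiter-Glo One luminescence was read after 48 h at 37°C.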

[1] = HPLM + 10% dialyzed FBS, 0.000781 µM
[2] = HPLM + 10% dialyzed FBS, 0.00234 µM
[3] = HPLM + 10% dialyzed FBS, 0.00702 µM
[4] = HPLM + 10% dialyzed FBS, 0.0211 µM
[5] = HPLM + 10% dialyzed FBS, 0.0632 µM
[6] = HPLM + 10% dialyzed FBS, 0.19 µM
[7] = HPLM + 10% dialyzed FBS, 0.569 µM
[8] = HPLM + 10% dialyzed FBS, 1.71 µM
[9] = HPLM + 10% dialyzed FBS, 5.12 µM
[10] = HPLM + 10% dialyzed FBS, 15.4 µM
[11] = HPLM + 10% dialyzed FBS, 46.1 µM
[12] = RPMI 5 mM glucose + 10% FBS, 0.000781 µM
[13] = RPMI 5 mM glucose + 10% FBS, 0.00234 µM
[14] = RPMI 5 mM glucose + 10% FBS, 0.00702 µM
[15] = RPMI 5 mM glucose + 10% FBS, 0.0211 µM
[16] = RPMI 5 mM glucose + 10% FBS, 0.0632 µM
[17] = RPMI 5 mM glucose + 10% FBS, 0.19 µM
[18] = RPMI 5 mM glucose + 10% FBS, 0.569 µM
[19] = RPMI 5 mM glucose + 10% FBS, 1.71 µM
[20] = RPMI 5 mM glucose + 10% FBS, 5.12 µM
[21] = RPMI 5 mM glucose + 10% FBS, 15.4 µM
[22] = RPMI 5 mM glucose + 10% FBS, 46.1 µM
[23] = RPMI 5 mM glucose + 10% dialyzed FBS, 0.000781 µM
[24] = RPMI 5 mM glucose + 10% dialyzed FBS, 0.00234 µM
[25] = RPMI 5 mM glucose + 10% dialyzed FBS, 0.00702 µM
[26] = RPMI 5 mM glucose + 10% dialyzed FBS, 0.0211 µM
[27] = RPMI 5 mM glucose + 10% dialyzed FBS, 0.0632 µM
[28] = RPMI 5 mM glucose + 10% dialyzed FBS, 0.19 µM
[29] = RPMI 5 mM glucose + 10% dialyzed FBS, 0.569 µM
[30] = RPMI 5 mM glucose + 10% dialyzed FBS, 1.71 µM
[31] = RPMI 5 mM glucose + 10% dialyzed FBS, 5.12 µM
[32] = RPMI 5 mM glucose + 10% dialyzed FBS, 15.4 µM
[33] = RPMI 5 mM glucose + 10% dialyzed FBS, 46.1 µM

Row | SMILES | cell viability [1] [%] | cell viability [2] [%] | cell viability [3] [%] | cell viability [4] [%] | cell viability [5] [%] | cell viability [6] [%] | cell viability [7] [%] | cell viability [8] [%] | cell viability [9] [%] | cell viability [10] [%] | cell viability [11] [%] | cell viability [12] [%] | cell viability [13] [%] | cell viability [14] [%] | cell viability [15] [%] | cell viability [16] [%] | cell viability [17] [%] | cell viability [18] [%] | cell viability [19] [%] | cell viability [20] [%] | cell viability [21] [%] | cell viability [22] [%] | cell viability [23] [%] | cell viability [24] [%] | cell viability [25] [%] | cell viability [26] [%] | cell viability [27] [%] | cell viability [28] [%] | cell viability [29] [%] | cell viability [30] [%] | cell viability [31] [%] | cell viability [32] [%] | cell viability [33] [%]
1 | CC(Cc1ccc(O)c(O)c1)(NN)C(=O)O (stereo unspecified) | 110 | 112 | 107 | 111 | 130 | 114 | 105 | 102 | 100 | 101 | 78.5 | 102 | 113 | 122 | 120 | 113 | 111 | 108 | 100 | 112 | 113 | 65.3 | 107 | 116 | 115 | 115 | 114 | 109 | 108 | 104 | 110 | 110 | 55.7
2 | Nc1nc(Nc2ccc([S+](N)(=O)[O-])cc2)nn1C(=O)c1c(F)cccc1F | 104 | 109 | 103 | 106 | 112 | 110 | 106 | 112 | 90.7 | 101 | 21.5 | 107 | 106 | 110 | 113 | 104 | 105 | 111 | 101 | 83.7 | 81.7 | 23.1 | 111 | 106 | 105 | 107 | 114 | 115 | 109 | 108 | 84.9 | 86.6 | 24.3
3 | O=C(O)CCNc1cc(N2CCc3ccccc3CC2)nc(-c2ccccn2)n1 | 119 | 116 | 115 | 127 | 114 | 111 | 117 | 112 | 114 | 102 | 88.5 | 122 | 119 | 113 | 110 | 114 | 123 | 123 | 128 | 104 | 97.8 | 69.2 | 116 | 130 | 123 | 126 | 123 | 109 | 115 | 121 | 114 | 102 | 79.6
4 | CO[C@H]1/C=C/O[C@@]2(C)Oc3c(C)c(O)c4c(O)c(c(/C=N/N5CCN(C)CC5)c(O)c4c3C2=O)NC(=O)/C(C)=C\C=C\[C@H](C)[C@H](O)[C@@H](C)[C@@H](O)[C@@H](C)[C@H](OC(C)=O)[C@@H]1C | 116 | 117 | 124 | 120 | 127 | 114 | 108 | 110 | 99.8 | 94.9 | 63.7 | 128 | 111 | 118 | 118 | 124 | 112 | 123 | 116 | 98.3 | 89.9 | 75.4 | 124 | 120 | 123 | 123 | 122 | 111 | 109 | 115 | 93.2 | 82 | 70.6
5 | O=C(O)[C@@H](c1ccc(OCc2ccc3ccccc3n2)cc1)C1CCCC1 | 113 | 114 | 106 | 109 | 109 | 102 | 107 | 99.6 | 106 | 102 | 98.7 | 116 | 116 | 110 | 110 | 102 | 106 | 107 | 107 | 92.8 | 98 | 96.9 | 108 | 112 | 112 | 113 | 108 | 109 | 106 | 101 | 95.8 | 102 | 100
6 | CCNC(=O)Nc1ccc(-c2nc3c(c(N4CCOC[C@@H]4C)n2)CCN(C2COC2)C3)cc1 | 114 | 111 | 113 | 112 | 110 | 100 | 82.1 | 63.8 | 56.6 | 49.5 | 46.1 | 113 | 113 | 107 | 116 | 104 | 96.8 | 82.7 | 61.6 | 55.4 | 41.3 | 33.9 | 114 | 108 | 111 | 106 | 103 | 95.8 | 79.3 | 64.1 | 54.6 | 39.9 | 32.7
7 | COC1=CC(=CC=C1)C2=CC=C(NC(=O)/C3=C(/CCC3)C(O)=O)C(=C2)F | 111 | 113 | 116 | 110 | 110 | 113 | 113 | 106 | 100 | 80.1 | 57.6 | 116 | 116 | 118 | 113 | 109 | 111 | 105 | 105 | 96.6 | 79.6 | 51.7 | 109 | 120 | 114 | 105 | 110 | 110 | 113 | 106 | 92.2 | 69.6 | 37.4
